Measurements from patent publication US10392368B2, “Pyrazolo and triazolo bicyclic compounds as JAK kinase inhibitors” (THERAVANCE BIOPHARMA R&D IP, LLC, priority 2017, dated 2019).

Tests used:
JAK1 = target: T1, JAK1 (Homo sapiens, UniProt P23458); assay: Biochemical JAK1 kinase assay (LanthaScreen); conditions: for Ki: read-out: JAK 1 (pKi) (converted)
T1 construct: GST; purchased Life Technologies
Procedure, shortened: (§1)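 GST-JAK + GFP-STAT1 peptide + cpd, 1 h preinc RT; ATP start, 1% DMSO, 1 h RT; stop 10 mM EDTA + 2 nM Tb-anti-pSTAT1; 1 h; TR-FRET 520/495. % inhib vs DMSO/background → IC50 (4-PL) → pKi (Cheng-Prusoff).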

Tyk2 = target: T2, Tyk2 (Homo sapiens, UniProt P29597); assay: Biochemical Tyk2 kinase assay (LanthaScreen); conditions: for Ki: read-out: Tyk 2 (pKi) (converted)
T2 construct: GST; purchased Life Technologies
Procedure, shortened: as §1

JAK3 = target: T3, JAK3 (Homo sapiens, UniProt P52333); assay: Biochemical JAK3 kinase assay (LanthaScreen); set-up: GST; purchased Life Technologies; conditions: for JAK3 (pKi)-JAK1 (pKi): selectivity: difference of pKi JAK3 and pKi JAK1; for Ki: read-out: JAK 3 (pKi) (converted)
T3 sequence (P52333 1-1124): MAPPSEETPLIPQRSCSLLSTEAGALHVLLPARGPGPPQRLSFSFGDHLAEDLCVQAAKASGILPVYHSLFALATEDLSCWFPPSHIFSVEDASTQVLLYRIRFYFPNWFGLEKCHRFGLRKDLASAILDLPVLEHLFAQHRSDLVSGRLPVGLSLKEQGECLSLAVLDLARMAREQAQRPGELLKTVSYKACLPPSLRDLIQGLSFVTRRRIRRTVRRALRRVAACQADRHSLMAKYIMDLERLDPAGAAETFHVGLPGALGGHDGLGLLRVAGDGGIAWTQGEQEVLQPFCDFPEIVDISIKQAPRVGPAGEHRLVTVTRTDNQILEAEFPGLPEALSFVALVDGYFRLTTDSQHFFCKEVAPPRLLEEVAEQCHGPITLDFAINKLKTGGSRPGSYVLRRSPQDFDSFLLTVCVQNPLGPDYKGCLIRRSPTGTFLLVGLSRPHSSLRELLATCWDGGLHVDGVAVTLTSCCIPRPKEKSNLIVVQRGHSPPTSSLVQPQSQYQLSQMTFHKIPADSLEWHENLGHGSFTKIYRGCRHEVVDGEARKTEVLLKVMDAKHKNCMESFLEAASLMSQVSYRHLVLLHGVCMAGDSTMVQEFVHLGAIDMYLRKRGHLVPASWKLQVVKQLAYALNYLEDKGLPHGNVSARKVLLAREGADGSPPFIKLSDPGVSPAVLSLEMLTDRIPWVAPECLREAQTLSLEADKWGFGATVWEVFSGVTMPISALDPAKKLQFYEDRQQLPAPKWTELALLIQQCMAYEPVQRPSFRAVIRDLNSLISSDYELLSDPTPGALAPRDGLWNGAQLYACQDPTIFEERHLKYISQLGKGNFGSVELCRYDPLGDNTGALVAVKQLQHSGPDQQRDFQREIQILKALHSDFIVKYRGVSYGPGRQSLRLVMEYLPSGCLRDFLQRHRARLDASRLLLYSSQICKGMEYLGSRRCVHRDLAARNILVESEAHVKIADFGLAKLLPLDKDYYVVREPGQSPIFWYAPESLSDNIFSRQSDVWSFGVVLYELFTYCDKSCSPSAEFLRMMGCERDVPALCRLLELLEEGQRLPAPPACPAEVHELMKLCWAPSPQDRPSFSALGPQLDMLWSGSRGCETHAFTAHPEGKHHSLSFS
Procedure, shortened: as §1

[1] = tested on: IL-2 stimulated pSTAT5 in Tall-1 T cells; assay: Cellular JAK3 potency assay: inhibition of IL-2 stimulated pSTAT5 in Tall-1 T cells; type: cell-based, human; conditions: for Tall-1 (pIC50): IL-2 stimulated pSTAT5 in Tall-1 T cells; for IC50: Homo sapiens, TALL-1, IL-2 stimulated pSTAT5 in Tall-1 T cells, read-out: Tall-1 (pIC50) (converted)
Procedure, shortened: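 In human Tall-1 T cells, IL-2 (300 ng/ml final, 30 min) drives STAT5 phosphorylation after a 1 h compound pretreatment. Lysates are assayed for pSTAT5 by AlphaLisa, and IC50 derived from signal versus concentration is expressed as pIC50.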

JAK2 = target: T4, JAK2 (Homo sapiens, UniProt O60674); assay: Biochemical JAK2 kinase assay (LanthaScreen); conditions: for Ki: read-out: JAK 2 (pKi) (converted)
T4 construct: GST; purchased Life Technologies
Procedure, shortened: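 GST-tagged recombinant JAK2 pre-incubated 1 h at ambient temperature with compound and GFP-STAT1 peptide in HEPES pH 7.5/MgCl2 buffer, then ATP added for a 1 h reaction with 1% DMSO. TR-FRET read after EDTA and Tb-anti-pSTAT1 (pTyr701) addition; IC50 from 4-parameter fit, converted to pKi by Cheng-Prusoff.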

T4 sequence (O60674 whole entry): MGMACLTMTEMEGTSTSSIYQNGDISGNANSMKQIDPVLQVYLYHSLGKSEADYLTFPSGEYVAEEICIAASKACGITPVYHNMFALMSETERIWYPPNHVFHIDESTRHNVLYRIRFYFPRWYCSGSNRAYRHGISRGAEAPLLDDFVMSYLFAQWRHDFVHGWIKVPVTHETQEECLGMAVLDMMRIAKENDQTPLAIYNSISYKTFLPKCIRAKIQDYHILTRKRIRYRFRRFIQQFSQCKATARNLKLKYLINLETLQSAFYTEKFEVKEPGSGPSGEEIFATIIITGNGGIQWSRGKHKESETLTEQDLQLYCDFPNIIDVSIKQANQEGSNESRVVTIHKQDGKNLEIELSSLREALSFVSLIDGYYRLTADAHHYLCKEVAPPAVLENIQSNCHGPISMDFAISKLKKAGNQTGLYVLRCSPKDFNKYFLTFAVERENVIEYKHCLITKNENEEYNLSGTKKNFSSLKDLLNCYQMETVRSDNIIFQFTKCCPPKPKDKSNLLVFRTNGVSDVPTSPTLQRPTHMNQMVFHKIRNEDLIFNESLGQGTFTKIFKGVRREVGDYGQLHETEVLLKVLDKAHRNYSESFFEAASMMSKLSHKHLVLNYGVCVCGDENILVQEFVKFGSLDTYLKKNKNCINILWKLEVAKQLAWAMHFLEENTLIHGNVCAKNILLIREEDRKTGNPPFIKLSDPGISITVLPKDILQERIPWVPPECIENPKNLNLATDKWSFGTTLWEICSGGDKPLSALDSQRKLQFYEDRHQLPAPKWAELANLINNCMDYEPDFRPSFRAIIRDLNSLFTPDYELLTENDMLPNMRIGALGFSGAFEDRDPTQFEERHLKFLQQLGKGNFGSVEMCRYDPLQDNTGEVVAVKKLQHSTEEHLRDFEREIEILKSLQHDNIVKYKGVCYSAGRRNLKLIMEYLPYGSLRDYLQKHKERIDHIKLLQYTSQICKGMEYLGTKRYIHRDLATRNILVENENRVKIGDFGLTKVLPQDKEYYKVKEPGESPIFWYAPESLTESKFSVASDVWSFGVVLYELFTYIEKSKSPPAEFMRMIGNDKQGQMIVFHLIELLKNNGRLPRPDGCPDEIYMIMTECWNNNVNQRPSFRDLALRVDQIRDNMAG
T1 sequence (P23458 whole entry): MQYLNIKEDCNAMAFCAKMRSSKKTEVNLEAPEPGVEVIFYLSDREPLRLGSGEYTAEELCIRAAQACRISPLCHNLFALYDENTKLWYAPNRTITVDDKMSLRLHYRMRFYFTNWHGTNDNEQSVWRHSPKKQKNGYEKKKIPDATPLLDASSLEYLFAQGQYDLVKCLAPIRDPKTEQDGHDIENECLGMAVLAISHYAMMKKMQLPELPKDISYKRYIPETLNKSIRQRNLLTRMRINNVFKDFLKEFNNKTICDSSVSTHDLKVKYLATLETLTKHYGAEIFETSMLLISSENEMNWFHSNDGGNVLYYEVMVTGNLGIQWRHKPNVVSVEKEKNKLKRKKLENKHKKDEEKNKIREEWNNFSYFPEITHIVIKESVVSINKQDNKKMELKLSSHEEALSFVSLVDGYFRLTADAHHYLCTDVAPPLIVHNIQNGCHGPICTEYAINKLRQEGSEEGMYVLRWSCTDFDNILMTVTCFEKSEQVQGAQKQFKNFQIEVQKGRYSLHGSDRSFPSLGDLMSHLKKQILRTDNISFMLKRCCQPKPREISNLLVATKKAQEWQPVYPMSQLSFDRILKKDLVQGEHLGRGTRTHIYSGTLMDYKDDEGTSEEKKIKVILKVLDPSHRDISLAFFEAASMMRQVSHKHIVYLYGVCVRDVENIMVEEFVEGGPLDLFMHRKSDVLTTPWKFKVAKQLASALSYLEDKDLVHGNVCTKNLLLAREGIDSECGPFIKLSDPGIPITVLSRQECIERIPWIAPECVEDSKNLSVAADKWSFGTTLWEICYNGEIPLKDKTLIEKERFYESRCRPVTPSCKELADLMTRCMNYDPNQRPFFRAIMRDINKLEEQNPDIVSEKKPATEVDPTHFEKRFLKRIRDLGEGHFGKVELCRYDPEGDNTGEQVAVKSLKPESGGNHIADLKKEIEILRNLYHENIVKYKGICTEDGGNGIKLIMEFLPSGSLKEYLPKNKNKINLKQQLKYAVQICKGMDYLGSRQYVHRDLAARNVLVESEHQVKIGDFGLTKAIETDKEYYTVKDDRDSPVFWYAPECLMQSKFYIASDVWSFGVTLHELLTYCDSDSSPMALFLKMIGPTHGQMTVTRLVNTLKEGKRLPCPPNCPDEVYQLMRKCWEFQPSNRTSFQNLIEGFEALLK
T2 sequence (P29597 whole entry): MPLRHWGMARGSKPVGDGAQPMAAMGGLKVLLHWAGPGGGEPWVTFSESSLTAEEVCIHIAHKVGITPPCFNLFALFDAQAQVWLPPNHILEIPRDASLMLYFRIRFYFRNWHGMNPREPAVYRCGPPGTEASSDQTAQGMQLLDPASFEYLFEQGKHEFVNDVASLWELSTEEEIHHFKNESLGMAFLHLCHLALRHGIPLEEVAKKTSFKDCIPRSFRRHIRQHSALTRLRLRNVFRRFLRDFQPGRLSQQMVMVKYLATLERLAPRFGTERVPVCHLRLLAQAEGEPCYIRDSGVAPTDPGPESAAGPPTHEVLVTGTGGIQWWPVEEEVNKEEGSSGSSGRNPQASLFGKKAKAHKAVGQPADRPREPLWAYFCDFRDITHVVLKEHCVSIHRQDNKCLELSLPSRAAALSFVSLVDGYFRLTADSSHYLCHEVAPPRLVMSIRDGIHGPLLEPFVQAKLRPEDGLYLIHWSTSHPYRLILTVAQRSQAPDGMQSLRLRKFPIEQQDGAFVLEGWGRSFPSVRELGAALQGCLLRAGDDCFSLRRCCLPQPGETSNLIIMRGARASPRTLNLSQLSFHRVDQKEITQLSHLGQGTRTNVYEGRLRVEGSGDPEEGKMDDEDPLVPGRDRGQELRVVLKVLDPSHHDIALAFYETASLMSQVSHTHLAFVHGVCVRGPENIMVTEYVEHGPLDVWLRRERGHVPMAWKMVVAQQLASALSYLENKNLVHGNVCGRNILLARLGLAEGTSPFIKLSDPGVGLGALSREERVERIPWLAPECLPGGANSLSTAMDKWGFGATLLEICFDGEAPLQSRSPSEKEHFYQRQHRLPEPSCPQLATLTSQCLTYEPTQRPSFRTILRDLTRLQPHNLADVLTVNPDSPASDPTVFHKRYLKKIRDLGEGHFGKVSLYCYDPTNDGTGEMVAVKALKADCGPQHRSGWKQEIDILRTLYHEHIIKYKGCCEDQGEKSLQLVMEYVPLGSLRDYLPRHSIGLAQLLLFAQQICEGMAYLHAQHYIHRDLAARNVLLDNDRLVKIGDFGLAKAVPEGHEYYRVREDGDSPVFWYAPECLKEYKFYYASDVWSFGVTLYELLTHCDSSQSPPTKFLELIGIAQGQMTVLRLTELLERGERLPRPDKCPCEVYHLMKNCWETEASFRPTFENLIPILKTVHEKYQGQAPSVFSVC

Compound	JAK 1 (pKi) (JAK1)	Tyk 2 (pKi) (Tyk2)	JAK 3 (pKi) (JAK3)	JAK3 (pKi)-JAK1 (pKi) (JAK3)	Tall-1 (pIC50) [1]	JAK 2 (pKi) (JAK2)	Ki (JAK1) [nM]	Ki (Tyk2) [nM]	Ki (JAK3) [nM]	IC50 [1] [nM]	Ki (JAK2) [nM]
C=CC(=O)N1CC[C@H](COc2cc(-c3ccc(O)c(F)c3)nc3[nH]ncc23)C1 [Compound 2-17]	E (a pKi value of 7 or below (Ki of 100 nM or above))	E (a pKi value of 7 or below (Ki of 100 nM or above))	A (a pKi value≥10 (Ki≤0.1 nM))	A (a value of 3 or above)	B (a pIC50 value between 6.7 (included) and 7.5 (IC50 between 200 nM and 32 nM))	E (a pKi value of 7 or below (Ki of 100 nM or above))	–	–	–	–	–
C=CC(=O)N1CC(COc2cc(-c3ccc(O)cc3)cc3[nH]ncc23)C1 [Compound 3-1]	–	–	–	A (a value of 3 or above)	–	–	> 100	> 100	0.1 to 1	< 31.6	> 100
CN(C)C/C=C/C(=O)N1CC(COc2cc(-c3ccc(O)c(Cl)c3)cc3[nH]ncc23)C1 [Compound 3-2]	–	–	–	A (a value of 3 or above)	–	–	> 100	> 100	0.1 to 1	31.6 to 200	> 100
C=CC(=O)N1CC(COc2cc(-c3ccc(O)c(Cl)c3)cc3[nH]ncc23)C1 [Compound 3-3]	–	–	–	A (a value of 3 or above)	–	–	> 100	> 100	0.1 to 1	< 31.6	> 100
C=CC(=O)N1CC(COc2cc(-c3ccc(O)c(F)c3)cc3[nH]ncc23)C1 [Compound 3-4]	–	–	–	A (a value of 3 or above)	–	–	> 100	> 100	0.1 to 1	< 31.6	10 to 100
CN(C)C/C=C/C(=O)N1CC(F)(COc2cc(-c3ccc(O)cc3)cc3[nH]ncc23)C1 [Compound 3-5]	D (a pKi value between 7 and 8 (Ki between 100 nM and 10 nM))	E (a pKi value of 7 or below (Ki of 100 nM or above))	B (a pKi value between 9 and 10 (Ki between 1 nM and 0.1 nM))	B (a value of 2.3 to 3)	A (a pIC50 value≥7.5 (IC50≤32 nM))	D (a pKi value between 7 and 8 (Ki between 100 nM and 10 nM))	–	–	–	–	–
CN(C)C/C=C/C(=O)N1CC(C)(COc2cc(-c3ccc(O)cc3)cc3[nH]ncc23)C1 [Compound 3-7]	–	–	–	A (a value of 3 or above)	–	–	> 100	> 100	< 0.1	31.6 to 200	10 to 100
C=CC(=O)N1CC(C)(COc2cc(-c3ccc(O)cc3)cc3[nH]ncc23)C1 [Compound 3-8]	E (a pKi value of 7 or below (Ki of 100 nM or above))	E (a pKi value of 7 or below (Ki of 100 nM or above))	B (a pKi value between 9 and 10 (Ki between 1 nM and 0.1 nM))	A (a value of 3 or above)	A (a pIC50 value≥7.5 (IC50≤32 nM))	E (a pKi value of 7 or below (Ki of 100 nM or above))	–	–	–	–	–
